Test results published in US8871756B2 (Hoffmann-La Roche Inc., priority 2011, dated 2014).
Where a name gives a salt, the structure may show the parent alone.

Test system: RSV Long strain
Test: Viral cytopathic effect (CPE) assay, anti-RSV activity
Type: cell-based, Respiratory Syncytial Virus
Conditions: RSV Long strain (ATCC); cell viability after 6 days, Cell Counting kit-8
Procedure: Viral cytopathic effect (CPE) assay: To measure anti-RSV activity of compounds, 96-well plates are seeded with 6×10^3 cells per well in Dulbecco's modified Eagle's medium (DMEM) containing 10% fetal bovine serum (FBS). Cells are infected the next day with sufficient RSV Long strain (ATCC) to produce an approximately 80-90% cytopathic effect after 6 days, in the presence of serial half-log diluted compound in a total volume of 200 μL per well. The viability of cells is assessed after 6 days using Cell Counting kit-8 (Dojindo Molecular Technologies). The absorbance at 450 nm and referenced at 630 nm is measured to determine 50% effective concentration (EC50).
The compounds of the present invention were tested for their anti-RSV activity, and the activation as described herein. The Examples were tested in the above assay and found to have EC50 of about 0.0001 μM to about 10 μM.

Compound	EC50 [µM]
Cc1ccc2nc(N3CC[S+]([O-])c4ccccc4C3)cc(NCC3(N)COC3)c2c1 (stereo not drawn) [Example 18-1, N-[(3-Aminooxetan-3-yl)methyl]-6-methyl-2-(1-oxido-2,3-dihydro-1,4-benzothiazepin-4(5H)-yl)quinolin-4-amine]	0.003

Same assay, conditions: human respiratory syncytial virus, 144 h, RSV Long strain (ATCC); cell viability after 6 days, Cell Counting kit-8

Compound	EC50 [µM]
NCCCNc1cc(N2CCS(=O)(=O)c3ccccc3C2)nc2ccc(C(F)(F)F)cc12 [Example 17-2, N-[2-(1,1-Dioxido-2,3-dihydro-1,4-benzothiazepin-4(5H)-yl)-6-(trifluoromethyl)quinolin-4-yl]propane-1,3-diamine]	0.616
O=S1(=O)CCN(c2cc(NCCO)c3cc(Cl)ccc3n2)Cc2ccccc21 [Example 9-31, 2-{[6-Chloro-2-(1,1-dioxido-2,3-dihydro-1,4-benzothiazepin-4(5H)-yl)quinolin-4-yl]amino}ethanol]	2.43
NCCCNc1cc(N2CCS(=O)(=O)c3ccccc3C2)nc2ccc(C3CC3)cc12 [Example 51, N-[6-Cyclopropyl-2-(1,1-dioxido-2,3-dihydro-1,4-benzothiazepin-4(5H)-yl)quinolin-4-yl]propane-1,3-diamine]	0.056
NCCCNc1cc(N2CCS(=O)(=O)c3ccccc3C2)nc2c(Cl)cccc12 [Example 9-12, N-[8-Chloro-2-(1,1-dioxido-2,3-dihydro-1,4-benzothiazepin-4(5H)-yl)quinolin-4-yl]propane-1,3-diamine]	2.66
Cc1ccc2nc(N3CCS(=O)(=O)c4ccccc4C3)cc(NCCCNC3COC3)c2c1 [Example 45-1, N-[2-(1,1-Dioxido-2,3-dihydro-1,4-benzothiazepin-4(5H)-yl)-6-methylquinolin-4-yl]-N′-(oxetan-3-yl)propane-1,3-diamine]	0.021
Cc1ccc2nc(N3CCS(=O)(=O)c4ccccc4C3)cc(NCCS(=O)(=O)CCN)c2c1 [Example 75, N-{2-[(2-Aminoethyl)sulfonyl]ethyl}-2-(1,1-dioxido-2,3-dihydro-1,4-benzothiazepin-4(5H)-yl)-6-methylquinolin-4-amine]	0.002
Cc1ccc2nc(N3CCS(=O)(=O)c4ccccc4C3)cc(NS(=O)(=O)C(F)(F)F)c2c1 [Example 3-57, N-[2-(1,1-Dioxido-2,3-dihydro-1,4-benzothiazepin-4(5H)-yl)-6-methylquinolin-4-yl]-1,1,1-trifluoromethanesulfonamide hydrochloride]	7.53
Cc1ccc2nc(N3CCS(=O)(=O)c4ccccc4C3)cc(NCCN(C)C)c2c1 [Example 3-32, N′-[2-(1,1-Dioxido-2,3-dihydro-1,4-benzothiazepin-4(5H)-yl)-6-methylquinolin-4-yl]-N,N-dimethylethane-1,2-diamine]	0.037
NCCNc1cc(N2CCCc3ccc(C(=O)O)cc3C2)nc2ccccc12 [Example 118-25, 2-{4-[(2-Aminoethyl)amino]quinolin-2-yl}-2,3,4,5-tetrahydro-1H-2-benzazepine-8-carboxylic acid]	7.62
COc1ccc2c(c1)S(=O)(=O)CCN(c1cc(NCCO)c3ccccc3n1)C2 [Example 9-2, 2-{[2-(8-M ethoxy-1,1-dioxido-2,3-dihydro-1,4-benzothiazepin-4(5 H)-yl)quinolin-4-yl]amino}ethanol]	4.77
Cc1ccc2nc(N3CCC(F)(F)c4ccccc4C3)cc(N3CCNCC3)c2c1 [Example 111-1, 5,5-Difluoro-2-[6-methyl-4-(piperazin-1-yl)quinolin-2-yl]-2,3,4,5-tetrahydro-1H-2-benzazepine]	2.01
Cc1ccc2nc(N3CCS(=O)(=O)c4ccccc4C3)cc(NCCN3CCOCC3)c2c1 [Example 12-1, 2-(1,1-Dioxido-2,3-dihydro-1,4-benzothiazepin-4(5H)-yl)-6-methyl-N-[2-(morpholin-4-yl)ethyl]quinolin-4-amine]	0.536
NC1=NCC(CNc2cc(N3CCCc4ccccc4C3)nc3ccccc23)O1 (stereo not drawn) [Example 126-1, N-[(2-Amino-4,5-dihydro-1,3-oxazol-5-yl)methyl]-2-(1,3,4,5-tetrahydro-2H-2-benzazepin-2-yl)quinolin-4-amine trifluoroacetate]	0.79
Cc1ccc2nc(N3CCS(=O)(=O)c4ccccc4C3)cc(NC(=O)C3CCNCC3)c2c1 [Example 3-62, N-[2-(1,1-Dioxido-2,3-dihydro-1,4-benzothiazepin-4(5H)-yl)-6-methylquinolin-4-yl]piperidine-4-carboxamide]	0.589
Cc1ccc2nc(N3CC[S+]([O-])c4ccccc4C3)cc(NCCO)c2c1 (stereo not drawn) [Example 18-11, 2-{[6-Methyl-2-(1-oxido-2,3-dihydro-1,4-benzothiazepin-4(5H)-yl)quinolin-4-yl]amino}ethanol]	0.619
Cc1ccc2nc(N3CC(=O)Nc4ccccc4C3)cc(NCCN)c2c1 [Example 133-1, 4-{4-[(2-Aminoethyl)amino]-6-methylquinolin-2-yl}-1,3,4,5-tetrahydro-2H-1,4-benzodiazepin-2-one]	0.31

Compound	EC50 [µM]
CNCCNc1cc(N2CCC(F)(F)c3ccccc3C2)nc2ccc(C)cc12 [Example 110-3, N-[2-(5,5-Difluoro-1,3,4,5-tetrahydro-2H-2-benzazepin-2-yl)-6-methylquinolin-4-yl]-N′-methylethane-1,2-diamine]	0.161
NCC1(CNc2cc(N3CCS(=O)(=O)c4ccccc4C3)nc3ccccc23)COC1 [Example 3-52, N-{[3-(Aminomethyl)oxetan-3-yl]methyl}-2-(1,1-dioxido-2,3-dihydro-1,4-benzothiazepin-4(5H)-yl)quinolin-4-amine]	0.005
Cc1ccc2nc(N3CCS(=O)(=O)c4ccccc4C3)cc(NC3CCOCC3)c2c1 [Example 3-27, 2-(1,1-Dioxido-2,3-dihydro-1,4-benzothiazepin-4(5H)-yl)-6-methyl-N-(tetrahydro-2H-pyran-4-yl)quinolin-4-amine]	1.39
Cc1ccc2nc(N3CCS(=O)(=O)c4ccc(F)cc4C3)cc(NCC3(N)COC3)c2c1 [Example 1-3, N-[(3-Aminooxetan-3-yl)methyl]-2-(7-fluoro-1,1-dioxido-2,3-dihydro-1,4-benzothiazepin-4(5H)-yl)-6-methylquinolin-4-amine]	0.072
COc1ccc2c(c1)S(=O)(=O)CCN(c1cc(NCC3(CN)COC3)c3cc(Cl)ccc3n1)C2 [Example 3-14, N-{[3-(Aminomethyl)oxetan-3-yl]methyl}-6-chloro-2-(8-methoxy-1,1-dioxido-2,3-dihydro-1,4-benzothiazepin-4(5H)-yl)quinolin-4-amine]	0.017
Cc1ccc2nc(N3CCS(=O)(=O)c4ccccc4C3)cc(N[C@@H]3CCCC[C@H]3N)c2c1 (relative stereo) [Example 3-15, trans-N-[2-(1,1-Dioxido-2,3-dihydro-1,4-benzothiazepin-4(5H)-yl)-6-methylquinolin-4-yl]cyclohexane-1,2-diamine]	0.482
Cc1ccc2nc(N3CCS(=O)(=O)c4ccccc4C3)cc(NCC(C)(O)CO)c2c1 (stereo not drawn) [Example 67, 3-{[2-(1,1-Dioxido-2,3-dihydro-1,4-benzothiazepin-4(5H)-yl)-6-methylquinolin-4-yl]amino}-2-methylpropane-1,2-diol]	0.585
Cc1ccc2nc(N3CC[S+]([O-])c4ccccc4C3)nc(NCCN)c2c1 (stereo not drawn) [Example 89, N-[6-Methyl-2-(1-oxido-2,3-dihydro-1,4-benzothiazepin-4(5H)-yl)quinazolin-4-yl]ethane-1,2-diamine]	0.007
Cc1ccc2nc(N3CCS(=O)(=O)c4ccccc4C3)cc(NC(=O)c3ccccn3)c2c1 [Example 48, N-[2-(1,1-Dioxido-2,3-dihydro-1,4-benzothiazepin-4(5H)-yl)-6-methylquinolin-4-yl]pyridine-2-carboxamide]	0.009
Cc1ccc2nc(N3CCS(=O)(=O)c4ccccc4C3)cc(NCC(O)CN)c2c1 (stereo not drawn) [Example 9-7, 1-Amino-3-{[2-(1,1-dioxido-2,3-dihydro-1,4-benzothiazepin-4(5H)-yl)-6-methylquinolin-4-yl]amino}propan-2-ol]	0.002
Cc1ccc2nc(N3CC[S+]([O-])c4ccccc4C3)cc(NCC3(CN)COC3)c2c1 (stereo not drawn) [Example 18-8, N-{[3-(Aminomethyl)oxetan-3-yl]methyl}-6-methyl-2-(1-oxido-2,3-dihydro-1,4-benzothiazepin-4(5H)-yl)quinolin-4-amine]	0.0007
Nc1cc(N2CCS(=O)(=O)c3cc(OCCCO)ccc3C2)nc2ccccc12 [Example 34, 3-{[4-(4-Aminoquinolin-2-yl)-1,1-dioxido-2,3,4,5-tetrahydro-1,4-benzothiazepin-8-yl]oxy}propan-1-ol]	2.09
Cc1ccc2nc(N3CCS(=O)(=O)c4ccccc4C3)cc(NCCO)c2c1F [Example 9-22, 2-{[2-(1,1-Dioxido-2,3-dihydro-1,4-benzothiazepin-4(5H)-yl)-5-fluoro-6-methylquinolin-4-yl]amino}ethanol]	0.872
Cc1ccc2nc(N3CCS(=O)(=O)c4ccccc4C3)cc(NCCCN)c2c1 [Example 9-3, N-[2-(1,1-Dioxido-2,3-dihydro-1,4-benzothiazepin-4(5H)-yl)-6-methylquinolin-4-yl]propane-1,3-diamine]	0.001
Cc1ccc2nc(N3CCS(=O)(=O)c4ccccc4C3)cc(N3C[C@H](O)CC3=O)c2c1 [Example 47-1, (4R)-1-[2-(1,1-Dioxido-2,3-dihydro-1,4-benzothiazepin-4(5H)-yl)-6-methylquinolin-4-yl]-4-hydroxypyrrolidin-2-one]	7.88
NCC1(CNc2cc(N3CCS(=O)(=O)c4ccccc4C3)nc3ccc(Cl)cc23)COC1 [Example 3-51, N-{[3-(Aminomethyl)oxetan-3-yl]methyl}-6-chloro-2-(1,1-dioxido-2,3-dihydro-1,4-benzothiazepin-4(5H)-yl)quinolin-4-amine]	0.004
